# Reference: patent US7772252B2, “Heterocyclic substituted carbonyl derivatives and their use as dopamine D3 receptor ligands” (Aventis Pharmaceuticals Inc., priority 2001, dated 2010)
# Target: T1, cloned human dopamine D3 receptors (Homo sapiens, UniProt P35462)
# T1 construct: expressed in transfected cells; membrane homogenate
# Test: [N-Methyl-3H]Spiroperidol binding to cloned human dopamine D3 receptors
# Details: Table 2; D3 receptor binding; read-out: d3Ki
# Summary of the method: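 Stably transfected CHO cells expressing cloned human D3 receptor were used as membranes homogenized in 10% DMSO. Ligand was [N-methyl-3H]spiroperidol displacement.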
# T1 sequence (P35462 whole entry): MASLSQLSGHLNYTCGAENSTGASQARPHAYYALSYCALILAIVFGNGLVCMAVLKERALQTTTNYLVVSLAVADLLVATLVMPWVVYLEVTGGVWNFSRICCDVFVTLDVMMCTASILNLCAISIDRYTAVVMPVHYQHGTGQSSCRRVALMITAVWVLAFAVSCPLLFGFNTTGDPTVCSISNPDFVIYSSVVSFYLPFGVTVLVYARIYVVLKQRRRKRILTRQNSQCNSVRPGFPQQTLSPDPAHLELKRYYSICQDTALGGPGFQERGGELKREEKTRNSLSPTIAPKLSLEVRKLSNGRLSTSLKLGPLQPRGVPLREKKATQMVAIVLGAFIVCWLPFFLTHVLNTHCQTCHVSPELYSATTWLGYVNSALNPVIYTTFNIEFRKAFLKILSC
row,Ki [nM],Structure (SMILES)
1,7.29,O=C(CCCN1CCN(c2csc3cc(C(F)(F)F)ccc23)CC1)N1CCC(O)CC1 [compound 826812]
2,5.16,CC1CCCCN1C(=O)CCCN1CCN(c2csc3cc(C(F)(F)F)ccc23)CC1 (stereo not drawn) [compound 826813]
3,10.3,CC1CCN(C(=O)CCCN2CCN(c3csc4cc(C(F)(F)F)ccc34)CC2)CC1 [compound 826814]
4,31.7,CC1CCCN(C(=O)CCCN2CCN(c3csc4cc(C(F)(F)F)ccc34)CC2)C1 (stereo not drawn) [compound 826815]

# Same assay, conditions: read-out: d3Ki
row,Structure (SMILES),Ki [nM]
1,CC1CCCC(NC(=O)CCCN2CCN(c3csc4cc(C(F)(F)F)ccc34)CC2)C1 (racemic) [compound 826807],43
2,O=C(CCCN1CCN(c2csc3cc(F)ccc23)CC1)NC1CCCC1 (racemic) [compound 826860],3.48
3,CN(C(=O)CCCN1CCN(c2csc3cc(C(F)(F)F)ccc23)CC1)C1CCCCC1 [compound 826808],17.4
4,O=C(CCCN1CCN(c2csc3cc(C(F)(F)F)ccc23)CC1)N(CCO)C1CCCCC1 [compound 826810],86.7
5,O=C(CCCN1CCN(c2csc3cc(C(F)(F)F)ccc23)CC1)NC1CCCC1 [compound 826820],52.8
6,O=C(CCCN1CCN(c2csc3cc(C(F)(F)F)ccc23)CC1)NC1CCCCC1 [compound 826821],70.1
7,C[C@H]1CC[C@H](NC(=O)CCCN2CCN(c3csc4cc(F)ccc34)CC2)CC1 [compound 826844],0.591
8,CCOC(=O)[C@H]1CC[C@H](NC(=O)CCCN2CCN(c3csc4cc(F)ccc34)CC2)CC1 [compound 826845],4.42
9,CC[C@H]1CC[C@H](NC(=O)CCCN2CCN(c3csc4cc(F)ccc34)CC2)CC1 [compound 826846],17.6
10,CC1CCCC(NC(=O)CCCN2CCN(c3csc4cc(F)ccc34)CC2)C1 (stereo not drawn) [compound 826847],1.01
11,CN(C(=O)CCCN1CCN(c2csc3cc(F)ccc23)CC1)C1CCCCC1 [compound 826848],4.35
12,CCN(C(=O)CCCN1CCN(c2csc3cc(F)ccc23)CC1)C1CCCCC1 [compound 826849],54.2
13,O=C(CCCN1CCN(c2csc3cc(F)ccc23)CC1)N(CCO)C1CCCCC1 [compound 826850],18.8
14,CCOC(=O)C1CCN(C(=O)CCCN2CCN(c3csc4cc(F)ccc34)CC2)CC1 [compound 826851],2.77
15,O=C(CCCN1CCN(c2csc3cc(F)ccc23)CC1)N1CCC(O)CC1 [compound 826852],3.54
16,CC1CCCCN1C(=O)CCCN1CCN(c2csc3cc(F)ccc23)CC1 (stereo not drawn) [compound 826853],0.128
17,CC1CCN(C(=O)CCCN2CCN(c3csc4cc(F)ccc34)CC2)CC1 [compound 826854],0.116
18,CC1CCCN(C(=O)CCCN2CCN(c3csc4cc(F)ccc34)CC2)C1 (stereo not drawn) [compound 826855],0.58
19,CC1CC(C)CN(C(=O)CCCN2CCN(c3csc4cc(F)ccc34)CC2)C1 (stereo not drawn) [compound 826858],3.71
20,O=C(CCCN1CCN(c2csc3cc(F)ccc23)CC1)N1CCCC1 [compound 826859],3.53
21,O=C(CCCN1CCN(c2csc3cc(F)ccc23)CC1)NC1CCCCC1 [compound 826861],2.89
22,CC1CCCN1C(=O)CCCN1CCN(c2csc3cc(F)ccc23)CC1 (stereo not drawn) [compound 826862],0.951

# Further lines, results first:
row,Ki [nM],Structure (SMILES)
1,40.4,CCOC(=O)C1CCN(C(=O)CCCN2CCN(c3csc4cc(C(F)(F)F)ccc34)CC2)CC1 [compound 826811]
2,26.3,O=C(CCCN1CCN(c2csc3cc(C(F)(F)F)ccc23)CC1)N1CCC(N2CCCC2)CC1 [compound 826816]
3,29.3,CC1CC(C)CN(C(=O)CCCN2CCN(c3csc4cc(C(F)(F)F)ccc34)CC2)C1 (stereo not drawn) [compound 826818]
4,11.6,O=C(CCCN1CCN(c2csc3cc(C(F)(F)F)ccc23)CC1)N1CCCC1 [compound 826819]
5,2.79,CC1CCCN1C(=O)CCCN1CCN(c2csc3cc(C(F)(F)F)ccc23)CC1 (stereo not drawn) [compound 826822]
6,19,CN(C)C1CCN(C(=O)CCCN2CCN(c3csc4cc(C(F)(F)F)ccc34)CC2)C1 (stereo not drawn) [compound 826823]
7,1.8,O=C(CCCN1CCN(c2csc3cc(F)ccc23)CC1)N1CCC(N2CCCC2)CC1 [compound 826856]
